Test results taken from patent publication US5563140A, “Use of 1-(aminoalkyl)-3-(benzyl)-quinoxaline-2-one derivatives for the preparation of neuroprotective compositions” (Phafag Aktiengesellschaft, priority 1991, dated 1996).

Assays:
glutamate receptors = experiment: Microiontophoresis at inner hair cell synapse of guinea pig cochlea: glutamate-induced spike activity; format: in vivo, guinea pigs
Method: The effectiveness of the 1-(aminoalkyl)-3-(benzyl)-quinoxaline-2-one derivatives as potential glutamate receptor antagonists was studied in the light of the neurotransmission between the inner hair cells (IHC) and the peripheral dendrites of the afferent neurons in the mammalian cochlea.
(§1) Experiments were performed on adult pigmented guinea pigs (300-700 g) of both sexes, anaesthetized with a combination of Rompun (Bayer, Leverkusen, Germany) and Innovar-Vet (Pitman-Moore, Mundelin, Ill., U.S.A.). Supplementary low doses of pentobarbital (Nembutal, Abbott, Chicago, U.S.A.) were given periodically throughout the experiments. Rectal temperature was maintained within physiological limits. After tracheotomy for artificial respiration, the auditory bulla was approached ventrolaterally and the cochlea was exposed. A small opening was drilled into the cochlea bone over the pigmented stria vascularis and the ligamentum spiale of the third turn.
(§2) The occurrence of phasic activity was used to identify the location precisely, since such activity occurs in the immediate vicinity of the initial postsynaptic structures.
Recordings of extracellular action potentials were obtained using a 2M NaCl-filled barrel of the 5-barrel glass micropipette. […]

tinnitus = experiment: Pilot clinical study in patients suffering from tinnitus; format: in vivo; conditions: 70-160 mg
Method: The neuroprotective effect of Caroverine was tested in a clinical study with patients who suffered from tinnitus. The etiology of tinnitus can be very different in different patients. One of the most frequent tinnitus type is, however, the cochlear tinnitus. If a functional disturbance between the IHC and the peripheral dendrites of the […] neurons is deemed to be the initiating, etiological factor, then this is called a "cochlear synaptic tinnitus". A neuroprotective pharmaceutical like Caroverine should therefore have a positive effect on the cochlear synaptic tinnitus.
In a pilot study Caroverine was applied to 72 patients suffering from tinnitus. Caroverine was applied intravenously (160 mg/100 ml physiological NaCl-solution). The real dosage depended on the tinnitus reduction perceived by the individual patient and varied between 70 and 160 mg.
The effectiveness of Caroverine was measured by a subjective rating and tinnitus-matching before and after the infusion of the drug.

central nervous system = experiment: Double-blind, placebo-controlled clinical study, EEG-mapping; format: in vivo, persons; conditions: 40 mg or 80 mg, orally or intravenously
Method: In a double-blind, placebo-controlled clinical study on a group of 15 persons, the cerebral effect of Caroverine was tested by means of electro-encephalogram (EEG)-mapping. The 15 caucasian probands were 7 females and 8 males between 20 and 35 years old (average 27 years). The weight ranged between 53 and 84 kg (average weight: 69 kg) and the height varied between 162 to 186 cm (average height: 175 cm).
Doses of 40 mg or 80 mg of Caroverine or placebo were administered either orally or intravenously for random sampling to the persons in weekly intervals. EEG-tracings as well as recordings of pulse, blood pressure and side effects were carried out 0, 1, 2, 4, 6 and 8 hours after medication.

[1] = Side-effects on application, also in high doses; format: in vivo; conditions: Caroverine and its salts
Text: Thus, it is experimentally established that 1-(aminoalkyl)-3-(benzyl)-quinoxaline-2-one derivatives are a potent, reversible and selective class of new glutamate receptor antagonists on the excitatory […] synapses of the cochlear inner hair cells.

[2] = test system: membrane response to acetylcholine; experiment: Microiontophoresis at inner hair cell synapse of guinea pig cochlea: acetylcholine-induced firing (selectivity); format: in vivo, guinea pigs; conditions: acetylcholine 60 nA; Caroverine 30 nA, FIG. 3
Method: as §1, §2
Recordings of extracellular action potentials were obtained using a 2M NaCl-filled barrel of the 5-barrel glass micropipette. […] Three other channels of the micropipette contained the solutions to be ejected microiontophoretically with the appropriate anionic and cationic currents: L-glutamic acid (0.5M, pH 3.5, adjusted with HCl); Caroverine-HCl (1-diethylaminoethyl-3-(p-methoxybenzyl)-1,2-dihydro-quinoxaline-2-one, 0.05M, natural pH=6.0). […]

## CCN(CC)CCn1c(=O)c(Cc2ccc(O)cc2)nc2ccccc21 [1-diethylaminoethyl-3-(p-hydroxy)-1,2-dihydroquinoxaline-2-one]
Glutamate receptors; cochlear inner hair cell synapses
  effectiveness as glutamate receptor antagonist: effective

## CCN(CC)CCn1c(=O)c(Cc2ccc(OC)cc2)nc2ccccc21 [Caroverine]
tinnitus; immediately after intravenous infusion, 72 patients
  patients noting a tinnitus reduction of at least 50% in absolute value: 66.7%
tinnitus; intravenous infusion
  side-effects: No sincere side-effects
Central nervous system
  time of maximum effect after medication: around 1 hour
[1]
  side-effects: no critical side-effects
[2]
  effect on acetylcholine-induced firing rate: no effect

## N[C@@H](CCC(=O)O)C(=O)O [Glutamate, L-glutamic acid]
Glutamate receptors; agonist alone, n=29 out of 31 fibers
  effect on firing rate of fibers in the synaptic region of IHC: enhances the firing rate
